“And” between values parts separate entries of the source, which are not always exact repeats. Equal entries are not always repeated.
Assays:
DAO = biological target: T1, DAO (Homo sapiens, UniProt P19801); assay: Compound oxidation by DAO; assay type: biochemical
T1 sequence (P19801 20-751): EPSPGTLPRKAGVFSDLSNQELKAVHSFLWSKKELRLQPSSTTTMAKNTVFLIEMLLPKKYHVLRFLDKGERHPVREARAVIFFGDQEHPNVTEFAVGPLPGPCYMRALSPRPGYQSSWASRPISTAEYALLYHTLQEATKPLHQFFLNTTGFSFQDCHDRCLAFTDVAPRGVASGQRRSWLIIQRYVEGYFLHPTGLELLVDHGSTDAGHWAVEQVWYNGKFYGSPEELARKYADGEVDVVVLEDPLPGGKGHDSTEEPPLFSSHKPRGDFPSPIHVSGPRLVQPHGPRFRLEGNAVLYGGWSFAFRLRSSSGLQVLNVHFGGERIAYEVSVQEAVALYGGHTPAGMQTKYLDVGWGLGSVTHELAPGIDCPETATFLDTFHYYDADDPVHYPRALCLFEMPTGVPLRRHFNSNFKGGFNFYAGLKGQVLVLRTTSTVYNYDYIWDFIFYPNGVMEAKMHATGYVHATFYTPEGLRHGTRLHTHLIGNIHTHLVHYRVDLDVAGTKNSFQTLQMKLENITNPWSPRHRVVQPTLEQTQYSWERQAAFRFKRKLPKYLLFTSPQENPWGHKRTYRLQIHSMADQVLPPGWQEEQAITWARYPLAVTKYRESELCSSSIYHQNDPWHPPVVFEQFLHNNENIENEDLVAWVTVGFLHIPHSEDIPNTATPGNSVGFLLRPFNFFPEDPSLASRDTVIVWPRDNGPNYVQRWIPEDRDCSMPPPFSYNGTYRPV

Glucocorticoid = Glucocorticoid (Homo sapiens, UniProt P04150); assay: Eurofins panel 232030; assay type: binding
Glucocorticoid, sequence (P04150 whole entry): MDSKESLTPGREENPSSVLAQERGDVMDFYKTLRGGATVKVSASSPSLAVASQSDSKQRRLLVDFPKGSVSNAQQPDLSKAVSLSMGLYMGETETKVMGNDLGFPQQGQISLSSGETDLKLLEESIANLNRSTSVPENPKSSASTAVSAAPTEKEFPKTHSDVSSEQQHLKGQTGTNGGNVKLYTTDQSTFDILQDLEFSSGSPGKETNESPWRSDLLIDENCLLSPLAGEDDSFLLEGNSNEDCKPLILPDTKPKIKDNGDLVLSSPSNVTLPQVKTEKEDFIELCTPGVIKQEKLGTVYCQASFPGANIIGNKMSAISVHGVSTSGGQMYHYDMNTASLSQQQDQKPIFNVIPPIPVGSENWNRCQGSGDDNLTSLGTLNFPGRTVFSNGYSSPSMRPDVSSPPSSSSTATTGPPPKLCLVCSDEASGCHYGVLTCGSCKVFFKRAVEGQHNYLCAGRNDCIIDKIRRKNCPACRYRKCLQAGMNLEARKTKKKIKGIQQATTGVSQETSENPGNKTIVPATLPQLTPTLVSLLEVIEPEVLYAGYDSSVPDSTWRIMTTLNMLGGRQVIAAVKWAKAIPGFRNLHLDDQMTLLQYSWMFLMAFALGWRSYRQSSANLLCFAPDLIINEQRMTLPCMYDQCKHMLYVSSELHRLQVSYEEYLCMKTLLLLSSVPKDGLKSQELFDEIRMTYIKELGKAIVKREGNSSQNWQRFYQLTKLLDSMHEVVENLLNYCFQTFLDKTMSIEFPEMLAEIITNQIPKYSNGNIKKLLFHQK

Thyroid Hormone = assay: Eurofins panel 285900; assay type: binding, rat; settings: 10 µM
[1] = Stability in cream formulations; assay type: physicochemical
[2] = test system: bleomycin-induced skin fibrosis; assay: Bleomycin-induced skin fibrosis in mice; assay type: in vivo, C57BL/6 mice; parameters: Skin LOX activity: scale not given here
Experimental: With a pharmacokinetic and pharmacodynamic profile supportive of the potential as a potent topical anti-fibrotic treatment, we next moved to evaluate the in vivo efficacy of PXS-6302. Intradermal injections of bleomycin on alternate days for three weeks induces fibrosis[21],[22]. […] In this model, starting from Day 3 and continuing until Day 20, bleomycin-dosed mice (0.1U, alternate days), were treated once daily topically with 0% (vehicle) or 1.5% PXS-6302 oil in water cream (2 ×100 μL applications at a 10-min interval). […] As bleomycin also stimulates the expression of degrading enzymes such as matrix metalloproteases, the significant drop in hydroxyproline and immature crosslinks could be related to both the reduced production as well as the accelerated degradation of these matrix proteins.
Cell pellets or isolated tissue samples were completely hydrolyzed in 1.5 mL 6 M hydrochloric acid for 24 h at 105 °C. After complete hydrolysis, samples were dried using a vacuum dryer and reconstituted using 200 µL MilliQ water. The sample clean-up was performed using solid-phase extraction method which uses C18 and SCX solid-phase extraction cartridges for sample purification. The samples were run on UPLC-MS-MS (Mass Spectrometer: Thermo Scientific TSQ Endura Triple quadrupole, UPLC: Thermo Scientific Dionex UltiMate 3000) using Agilent RRHD SB-C18,2.1x50mm,1.8um analytical column and solvent A: 10 mM ammonium formate, 0.1% formic acid, 0.1% HFBA in H2O and solvent B: 10 mM ammonium formate, 0.1% formic acid, 0.1% HFBA in MeOH and analyzed as previously described. Limits of detection are listed in Supplementary Table S4.
8–10-week old C57BL/6 mice (n = 10 each group) were used to induce skin fibrosis. Bleomycin (Bleomycin sulfate from Streptomyces verticillicus, Euroasia) dry powder 1.5 IU/mg was reconstituted in saline at 2 IU/ml concentration. Starting on day 0 and continuing on alternate days thereafter, animals received subcutaneous injection of Bleomycin (0.1 IU in 50 µL volume) and/or saline on the right flank. For each animal, each dose was injected at a single site. The injections were continued for 20 days throughout the study. Starting from day three, vehicle cream or vehicle plus drug cream were applied topically once a daily treatment to a 2 cm × 2 cm area on the right dorsal flank of the animal for 20 days. On Day 21, all animals were euthanized and the skin tissue was collected for further histopathological analysis. The skin tissue was fixed in 4% PFA and sectioned skin was stained with Masson’s Trichrome, Collagen I and LOX and used to assess dermal fibrosis. Masson’s Trichrome was used to assess fibrotic index. Collagen Stain was subjectively scored for intensity as compared to control tissue. LOX Stain was subjectively scored as stain accumulation compared to control tissue. All images were assessed by assessors blinded to the treatment group. Composite skin/immunohistochemistry scoring tables used are in the Supplementary Information (Supplementary Tables S5, S6).

[3] = […] cream topically once daily, Day 3 to Day 20

| Compound | DAO specificity (Fig 2G), oxidation, individual experiments (DAO; 30) | DAO specificity (Fig 2G), oxidation, individual experiments (DAO; 60) | DAO specificity (Fig 2G), oxidation, individual experiments (DAO; 90) | inhibition at 10 µM (Glucocorticoid; 10 µM) [%] | % Inh. (Thyroid Hormone) [%] | stability in cream formulations [1] | composite skin score ([2]; […] cream topically once daily) | immunohistochemistry COL1 score ([2]; […] cream topically once daily) | immunohistochemistry LOX score ([2]; […] cream topically once daily) | inhibition at 30 µM (Glucocorticoid; read-out: % Inh.) [%] | Skin LOX activity ([2]; Bleo + PXS-6302, individual animals) | Skin thickness ([2]; PXS-6302, individual animals) | LOX activity in skin [2, 3] | fibrosis as assessed by skin thickness [2, 3] | hydroxyproline content [2, 3] | immature crosslinking (DHLNL and HLNL) [2, 3] |
| --- | --- | --- | --- | --- | --- | --- | --- | --- | --- | --- | --- | --- | --- | --- | --- | --- |
| N#CCCN [BAPN, β-aminoproprionitrile, reference compound] | 3.03 and 4.57 and 4.19 and 2.62 and 3.96 | 5.81 and 3.22 and 2.98 and 4.96 | 9.3 and 4.42 and 7.32 |  |  |  |  |  |  |  |  |  |  |  |  |  |
| NC/C=C(\F)CS(=O)(=O)c1ccccc1 [PXS-4787] |  |  |  | 3 | 0 | some unwanted degradation occurred | Reduced | decreas ed | Decreased |  |  |  |  |  |  |  |
| NC/C=C(\F)C(F)(F)S(=O)(=O)c1ccccc1 [PXS-6302] | 1.03 and 0.98 and 1 and 1.08 and 0.97 and 0.99 and 1.04 and 1.01 and 1.07 and 0.91 | 1.17 and 1.11 and 1.01 | 1.87 and 1.39 and 1.55 |  |  |  | significantly reduced | significantly reduced | significantly reduced | 13 | 0.8656 and 1.07 and 1.02 and 1.046 and 0.9944 and 1.027 and 1.022 and 1.017 and 1.088 | 0.34 mm and 0.36 mm and 0.41 mm and 0.33 mm and 0.39 mm and 0.38 mm and 0.4 mm | significant reduction | significantly reduced | reduced | reduced |
